Assay results taken from patent US12624068B2, “Exon skipping by peptide nucleic acid derivatives” (OliPass Corporation, priority 2016, dated 2026).
[C(1O2)] = modified PNA monomer acting as cytosine, C(pOq) type, 1O2; [A(5)] = modified PNA monomer acting as adenine, A(p) type, p=5; [G(5)] = modified PNA monomer acting as guanine, G(p) type, p=5; {Fethoc} = N-terminal Fethoc cap; {NH2} = C-terminal amide

How the values were obtained:
mdx mice [1] = assay: Histopathology by H&E staining of skeletal muscle in mdx mice; assay type: in vivo, mouse
Description: [Histopathology by H&E Staining] Muscular inflammation and degeneration are the hallmark of DMD symptoms. Skeletal muscle samples were subjected to histopathology evaluation by H&E staining. FIG. 43 provides a representative set of H&E staining images for the triceps by group and sampling time point.

mdx mice [2] = assay: Unscheduled death, sacrifice or lymphoma in chronically treated mdx mice; assay type: in vivo, mouse
Description: [Grouping & ASO Treatment] Male mdx mice (7 weeks old) were randomly assigned to 4 groups of 0 (mdx negative control), 10, 50, and 200 pmole/Kg “DMD-ASO 1” based on individual grip strength scores by grip test. (N=12 per group) A satellite group of 12 male C57BL/6 mice (7 weeks old) was included in this study as the wild type negative control group for the full-length dystrophin expression level.
The 50 and 200 pmole/Kg group subcutaneously received “DMD-ASO 1” as dissolved in PBS, 2× per week until the final sacrifice in Week 43. In the meantime, the 10 pmole/Kg group subcutaneously received “DMD-ASO 1” initially 2× per week during Week 0 to 8, and 3× per week afterwards to increase the ASO exposure.
[Miscellaneous Findings] There were three cases of unscheduled sacrifice or death (Weeks 26, 39 and 43) in the mdx negative control group due to a large mass of muscular lymphoma developed most likely by chronic muscular inflammation.
“DMD-ASO 1”, “DMD-ASO 2” and “DMD-ASO 6” were evaluated for their physiological effects in male mdx mice by long term subcutaneous administration. In this evaluation the animals were not subjected to physical tests requiring muscular stress in order to keep the transcription of the dystrophin gene undisturbed by excessive muscular stimulation.
[Animals & Grouping] Male mdx mice (6 weeks old) were randomly assigned to 4 groups of the mdx negative control (no ASO treatment), “DMD-ASO 1” 50 pmole/Kg, “DMD-ASO 2” […], and “DMD-ASO 6” […] based on the body weight. (N=12-13 per group) 12 male C57BL/6 mice (6 weeks old) were adopted as the wild type (WT) negative control group.
[Injection Solutions & ASO Treatment] Aqueous mother stock solutions of the ASOs were serially diluted in PBS to prepare the injection solutions of 25 nM “DMD-ASO 1” for 50 pmole/Kg “DMD-ASO 1”, 5 nM “DMD-ASO 2” for “DMD-ASO 2” 10 pmole/Kg, and 5 nM “DMD-ASO 6” for “DMD-ASO 6” 10 pmole/Kg. The animals were subcutaneously administered with the injection solutions at 2 mL/Kg, 2× per week.

[3] = test system: sodium ion current in rat DRG cells; assay: CoroNa assay of sodium current in rat L5 DRG neuronal cells; assay type: cell-based; conditions: rat L5 DRG cells without L5/L6 ligation, 30 hrs
Protocol: “SCN-ASO 27” was evaluated for its ability to inhibit the sodium ion current in rat DRG (dorsal root ganglion) cells using “CoroNa Green” as follows.
[SNL Surgery by L5/L6 Ligation] In Day 0, 6 weeks old male SD rats were anesthetized with zoletil/rompun. Then the L5 and L6 spinal nerve (left side) were exposed and tightly ligated. The muscle and skin were closed and clipped by due aseptic procedures. The rats were sporadically sensitized by von Frey scoring over a period of 4 weeks.
[Preparation of DRG Neuronal Cells] In Day 31, a rat showing a low von Frey score was sacrificed to extract both the left (ligated side) and the right (non-ligated side) DRG. […]
[ASO Treatment & CoroNa Assay] […] The culture dish was mounted on a fluorescence microscope equipped with a CCD camera to continuously capture the green fluorescent images of the cells. The cells were acutely treated with 10 mM NaCl, and then the changes in the cellular fluorescent intensity were digitally recorded over a period of 300 sec. […] The fluorescence intensities from each individual cell were traced at a resolution of a second. The traces of the intracellular fluorescence intensities from individual cells were averaged using ImageJ program (version 1.50i, NIH), and the average traces are provided in FIGS. 33A and 33B for the cells with “L5/L6 ligation” and without “L5/L6 ligation”, respectively. […]

Row | Substance | muscular degeneration and inflammation (H&E) (mdx mice [1]; chronic 200 pmole/Kg) | severity of the histopathology findings (H&E) (mdx mice [1]; chronic 10 and 50 pmole/Kg) | premature deaths (unscheduled death or sacrifice) (mdx mice [2]; DMD-ASO 1 50 pmole/Kg, DMD-ASO 2 or DMD-ASO 6 10 pmole/Kg, subcutaneous 2× per week, 66 weeks) | cases of muscular lymphoma (mdx mice [2]; chronic 10, 50 or 200 pmole/Kg up to Week 43) | decrease in fluorescence intensity (CoroNa) ([3]; 1 aM) [%] | decrease in fluorescence intensity (CoroNa) ([3]; 100 zM)
1 | Fethoc-A(5)GA-G(6)CC(1O2)-TCA-A(5)AA(5)-T-NH2 (antisense AGAGCCTCAAAAT; Fethoc N-cap, C-terminal amide, chemistry not fully specified) [DMD-ASO 1] | reversed | weaker than the severity in the mdx negative control, but stronger than that in the 200 pmole/Kg group | two premature deaths | no cases of lymphoma | – | –
2 | Fethoc-AA(5)G-TG(5)T-A(5)CC(1O2)-TA(5)A-A(5)C-NH2 (AAGTGTACCTAAAC; splice-switching; all peptide nucleic acid (PNA), [A(5)] at 2, 7, 11, 13, [G(5)] at 5, [C(1O2)] at 9, 5' {Fethoc}, 3' {NH2}; peptide nucleic acid written N to C) [SCN-ASO 27] | – | – | – | – | ~50 | no decrease
